Where “and” joins values, the source holds several entries; their conditions need not be identical. Identical values can stand only once.
System: anti collagen antibodies induced arthritis (ACAIA)
Experiment: ACAIA mice: histopathology of hind paws (tarsus);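 note: Mid-sagittal H&E-stained sections of mouse tarsus taken at study end, lesion severity graded from 0 (normal) to 4 (severe)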
Assay type: in vivo, Balb/c mice
Parameters: key to Histology: Score / Histology: Score, MEAN: 0 = within normal limits, 1 minimal, 2 mild, 3 moderate, 4 severe
Details: for Histology: Score, MEAN: group mean; for Histology: Bones / Histology: Cartilage / Histology: Joint space / Histology: Score / Histology: Soft tissue: individual animals
[1] = 1 mg/kg IA (Group 3), L paw (injected)
[2] = 1 mg/kg IA (Group 3), R paw (contralateral)
[3] = 10 mg/kg IA (Group 2), Mean±SEM
[4] = 10 mg/kg IA (Group 2), L paw (injected)
[5] = 10 mg/kg IA (Group 2), R paw (contralateral)
[6] = 1 mg/kg IA (Group 7), L paw (injected)
[7] = 1 mg/kg IA (Group 7), R paw (contralateral)

Text: At the end of the study, the mice are euthanized using pentobarbital sodium injection. Once euthanized, one hind paw of each animal is harvested and collected into vials containing 4% formalin for histology analysis.
The samples are sagittal sections of the right and left murine tarsus. The histology scoring is based on the severity of the lesions, taking into account both the number of infiltrating cells and the extent of cartilage and bone damage. To be classified as severe, a lesion has to show bone and cartilage damage (beyond degeneration for the latter). The scores are 0=within normal limits, 1-minimal, 2-mild, 3-moderate, 4-severe.
Statistics and data evaluation are primarily based on the mean values for body weight, arthritis clinical scoring and paw thickness measurements. Where appropriate, analysis of the data by one-way ANOVA followed by Dunnett's post-test is applied to determine the significance of treatment effects. All data for the histopathological analysis is presented as Mean±SEM. The treatment groups are compared to the Vehicle group (Group 1) or the contralateral hind paw using the Student's T-test. A p-value <0.05 is considered to represent a significant difference.
Histopathological analysis was conducted in accordance with Method B. Tissues from groups 1, 2, 3 and 7 were processed. Following decalcification, the tissues were cut mid-sagitally and were processed and sectioned for H & E staining. The histopathological analysis included an examination of the number of infiltrating cells and the extent of cartilage and bone damage.

SMILES: Cn1cc(-c2cccc(O)c2Oc2ccccc2)c2cc[nH]c2c1=O [BETi1]
- mean histopathological score, treated left hind paw (1 mg/kg IA (Group 3), Mean±SEM): 2.14±0.55 a.u.
- Histology: Score, MEAN [1]: 2.14
- Histology: Bones [1]: 3.5 and 2 and 0 (3×) and 3 and 4
- Histology: Cartilage [1]: 3.5 and 2 and 0 (3×) and 3 and 4
- Histology: Joint space [1]: 4 (4×) and 0 (3×)
- Histology: Score [1]: 3.5 (3×) and 2.5 and 1 (2×) and 0
- Histology: Soft tissue [1]: 3 (2×) and 2.5 (2×) and 1 (2×) and 0
- Histology: Score, MEAN [2]: 3.57
- Histology: Bones [2]: 4 (5×) and 0 and 3.5
- Histology: Cartilage [2]: 4 (6×) and 0
- Histology: Joint space [2]: 4 (6×) and 0
- Histology: Score [2]: 4 (6×) and 1
- Histology: Soft tissue [2]: 4 (3×) and 1 and 3.5 (2×) and 3
- histopathology findings, treated paws (1 mg/kg IA (Group 3L), 3/7 cases): moderate to severe lesions with destruction of cartilage and bone
- mean histopathological score, contralateral right hind paw [3]: 4.00±0.00 a.u.
- mean histopathological score, treated left hind paw [3]: 0.33±0.21 a.u.
- Histology: Score, MEAN (10 mg/kg IA (Group 2), L paw (injected), **p < 0.01 vs Vehicle Group, ##p < 0.01 vs contralateral (Right) paw): 0.33**##
- Histology: Bones [4]: 0
- Histology: Cartilage [4]: 0
- Histology: Joint space [4]: 0
- Histology: Score [4]: 0 (4×) and 1 (2×)
- Histology: Soft tissue [4]: 0 (4×) and 1 (2×)
- Histology: Score, MEAN [5]: 4.00
- Histology: Bones [5]: 4
- Histology: Cartilage [5]: 4
- Histology: Joint space [5]: 4
- Histology: Score [5]: 4
- Histology: Soft tissue [5]: 4 (4×) and 3.5 (2×)
- histopathology findings, treated paws (10 mg/kg IA (group 2L)): 4/6 were WNL

SMILES: C[C@@H]1C[C@H]2[C@@H]3CCC4=CC(=O)C=C[C@]4(C)[C@@]3(F)[C@@H](O)C[C@]2(C)[C@@]1(O)C(=O)CO [dexamethasone, Dexamethasone, reference compound]
- Histology: Score, MEAN [6]: 2.93
- Histology: Bones [6]: 4 (2×) and 0 and 3 (3×) and 2.5
- Histology: Cartilage [6]: 4 (2×) and 0 and 3 (2×) and 2.5 (2×)
- Histology: Joint space [6]: 4 (6×) and 0
- Histology: Score [6]: 4 (2×) and 1 and 3 (3×) and 2.5
- Histology: Soft tissue [6]: 4 (2×) and 1.5 and 2 (2×) and 3 and 2.5
- Histology: Score, MEAN [7]: 2.29
- Histology: Bones [7]: 0 (3×) and 4 (4×)
- Histology: Cartilage [7]: 0 (3×) and 4 (4×)
- Histology: Joint space [7]: 0 (3×) and 4 (4×)
- Histology: Score [7]: 0 (3×) and 4 (4×)
- Histology: Soft tissue [7]: 0 (3×) and 4 (4×)
